Test results published in ChEMBL document CHEMBL5236599, “Design, synthesis and biological evaluation of cajanonic acid A analogues as potent PPAR γ antagonists” (Bioorg Med Chem Lett, 2023).

Assays:
[1] = target: T1, Peroxisome proliferator-activated receptor gamma (Homo sapiens) (UniProt P37231); assay: Antagonist activity at PPAR-gamma (unknown origin) transfected in human HEK293 cells assessed as decrease in rosiglitazone-induced receptor transactivation at 10 uM by dual-luciferase reporter gene assay relative to control; assay type: cell-based
T1 sequence (whole entry): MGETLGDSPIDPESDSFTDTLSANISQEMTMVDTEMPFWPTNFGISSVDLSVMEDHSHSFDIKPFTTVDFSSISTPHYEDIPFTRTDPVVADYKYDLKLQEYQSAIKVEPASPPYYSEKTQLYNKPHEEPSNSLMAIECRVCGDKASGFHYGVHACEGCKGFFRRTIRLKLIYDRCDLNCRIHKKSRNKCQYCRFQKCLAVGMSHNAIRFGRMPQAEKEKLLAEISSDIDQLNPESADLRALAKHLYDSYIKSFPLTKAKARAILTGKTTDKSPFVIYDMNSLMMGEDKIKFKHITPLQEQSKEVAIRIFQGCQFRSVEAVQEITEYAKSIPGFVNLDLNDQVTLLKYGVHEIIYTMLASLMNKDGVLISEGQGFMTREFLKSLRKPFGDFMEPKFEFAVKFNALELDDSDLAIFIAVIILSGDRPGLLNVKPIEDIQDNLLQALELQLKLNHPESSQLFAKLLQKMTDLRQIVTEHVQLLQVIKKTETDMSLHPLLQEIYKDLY

[2] = Induction of insulin-sensitizing activity in insulin-resistant human HepG2 cells assessed as increase in glucose consumption at 0.1 uM relative to control; assay type: functional
[3] = Induction of insulin-sensitizing activity in insulin-resistant human HepG2 cells assessed as glucose consumption at 0.1 uM (reference value: 5.83 +/-0.101 mM); assay type: functional
[4] = Cytotoxicity against human HepG2 cells assessed as cell viability at 0.1 uM; assay type: toxicity, cell-based; conditions: read-out: Activity
[5] = Induction of insulin-sensitizing activity in insulin-resistant mouse 3T3-L1 cells assessed as glucose consumption at 0.1 uM (reference value: 3.354 +/- 0.342 mM); assay type: functional
[6] = Induction of insulin-sensitizing activity in insulin-resistant mouse 3T3-L1 cells assessed as increase in glucose consumption at 0.1 uM relative to control; assay type: functional
[7] = target: T1, Peroxisome proliferator-activated receptor gamma (Homo sapiens); assay: Antagonist activity at PPAR-gamma (unknown origin) transfected in human HEK293 cells assessed as decrease in rosiglitazone-induced receptor transactivation at 1 uM by dual-luciferase reporter gene assay relative to control; assay type: cell-based

inhibition [1] [%] | inhibition ([1]; filed as antagonist) [%] | inhibition [7] [%] | Structure (SMILES) | Activity [2] [%] | Activity [3] [mM] | viability at 0.1 µM [4] [%] | Activity [5] [mM] | Activity [6] [%]
31.7 |  |  | COc1cc(CC(=O)c2cccc(-c3cccnc3)c2)c(C(=O)O)c(O)c1CC=C(C)C | 18.84 | 6.93 | < 80 | 4.554 | 21.46
 |  |  | COc1cc(CC(=O)c2cccc(-c3ccc(C)cc3)c2)c(C(=O)O)c(O)c1CC=C(C)C | 35.25 | 7.886 |  | 7.712 | 105.7
8.1 |  |  | CCc1ccc(-c2cccc(C(=O)Cc3cc(OC)c(CC=C(C)C)c(O)c3C(=O)O)c2)cc1 | 36.01 | 7.93 |  | 7.042 | 87.84
 | 79.5 | 36.9 | COc1ccc(-c2cccc(C(=O)Cc3c(CC=C(C)C)c(OC)cc(O)c3C(=O)O)c2)cc1 | 24.38 | 7.252 |  | 7.69 | 105.12
 | 84.7 | -0.4 | COc1ccc(-c2cccc(C(=O)Cc3c(CC=C(C)C)c(OC)cc(O)c3C(=O)O)c2)c(F)c1 | 18.83 | 6.928 |  | 7.335 | 95.64
 | 57.5 | 24.1 | COc1cc(CC(=O)c2cccc(-c3ccccc3Cl)c2)c(C(=O)O)c(O)c1CC=C(C)C | 43.55 | 8.371 |  | 5.969 | 59.21
 | 80.1 |  | COc1cc(O)c(C(=O)O)c(CC(=O)c2cccc(-c3ccccc3C(F)(F)F)c2)c1CC=C(C)C | 41.5 | 8.251 |  | 5.688 | 51.71
 | 64.5 | 23.9 | COc1cc(O)c(C(=O)O)c(CC(=O)c2cccc(-c3ccc(C)cc3)c2)c1CC=C(C)C | 28.49 | 7.492 |  | 7.488 | 99.73
 | 71 | 19.3 | COc1cc(O)c(C(=O)O)c(CC(=O)c2cccc(-c3ccc(Cl)cc3)c2)c1CC=C(C)C | 38.76 | 8.091 |  | 7.257 | 93.55
 | 43.7 | 24.3 | COc1cc(O)c(C(=O)O)c(CC(=O)c2cccc(-c3ccsc3)c2)c1CC=C(C)C | 3.71 | 6.047 | < 80 | 6.404 | 70.82
39 |  | 12.9 | COc1cc(O)c(C(=O)O)c(CC(=O)c2ccccc2)c1CC=C(C)C | 20.66 | 6.729 |  |  | 
11.1 |  | 12.7 | COc1cc(CC(=O)c2cccc(-c3ccnc(Cl)c3)c2)c(C(=O)O)c(O)c1CC=C(C)C | 25.88 | 7.34 |  | 5.501 | 46.74
20.8 |  |  | COc1ccc(-c2cccc(C(=O)Cc3cc(OC)c(CC=C(C)C)c(O)c3C(=O)O)c2)cc1 | 27.56 | 7.438 |  | 7.533 | 100.93
 | 81.2 | 34.6 | COc1cc(O)c(C(=O)O)c(CC(=O)c2cccc(C3CC3)c2)c1CC=C(C)C | 2.94 | 6.002 |  | 5.099 | 36
 | 92.3 | 19.9 | COc1cc(O)c(C(=O)O)c(CC(=O)c2cccc(-c3ccnc(Cl)c3)c2)c1CC=C(C)C | 8.36 | 6.318 | < 80 | 5.579 | 48.82
 | 77.7 | 17.7 | COc1cc(CC(=O)c2cccc(C3CC3)c2)c(C(=O)O)c(O)c1CC=C(C)C | 14.83 | 6.696 |  | 5.686 | 51.66
 | 50.9 | -6.1 | COc1cc(CC(=O)c2cccc(-c3cccc(C(F)(F)F)c3)c2)c(C(=O)O)c(O)c1CC=C(C)C | 48.32 | 8.649 |  | 5.151 | 37.4
 | 47.7 | 7.7 | COc1cc(CC(=O)c2cccc(-c3ccsc3)c2)c(C(=O)O)c(O)c1CC=C(C)C | 39.36 | 8.126 |  | 8.145 | 117.26
 | 99.1 | 10.9 | O=C(Nc1ccccc1)c1cc([N+](=O)[O-])ccc1Cl |  |  |  |  | 
 | 60.2 | -8.3 | CCc1ccc(-c2cccc(C(=O)Cc3c(CC=C(C)C)c(OC)cc(O)c3C(=O)O)c2)cc1 | 40.66 | 8.202 |  | 6.655 | 77.5
26.6 |  |  | COc1cc(CC(=O)c2cccc(-c3ccc(Cl)cc3)c2)c(C(=O)O)c(O)c1CC=C(C)C | 39.56 | 8.138 |  | 7.165 | 91.12
 | 82.5 | -3.8 | COc1cc(O)c(C(=O)O)c(CC(=O)c2cccc(-c3cccnc3)c2)c1CC=C(C)C | 1.49 | 5.917 | < 80 | 3.107 | -17.14
10.3 |  | 4.6 | COc1cc(CC(=O)c2cccc(-c3cncnc3)c2)c(C(=O)O)c(O)c1CC=C(C)C | 10.28 | 6.43 | < 80 | 4.09 | 9.11
 | 55 | 11.5 | COc1cc(O)c(C(=O)O)c(CC(=O)c2cccc(-c3cncnc3)c2)c1CC=C(C)C | 5.76 | 6.171 | < 80 | 3.405 | -11.08
 | 66 | 16 | COc1cc(O)c(C(=O)O)c(CC(=O)c2cccc(-c3ccc(F)cc3)c2)c1CC=C(C)C | 29.73 | 7.564 |  | 6.637 | 77.02
 |  |  | CN(CCOc1ccc(CC2SC(=O)NC2=O)cc1)c1ccccn1 (stereo not drawn) [ROSIGLITAZONE] | 22.74 | 7.15 |  | 5.421 | 44.58
16.4 |  |  | COc1ccc(-c2cccc(C(=O)Cc3cc(OC)c(CC=C(C)C)c(O)c3C(=O)O)c2)c(F)c1 | 37.05 | 7.992 |  | 6.591 | 75.81
39.6 |  | -2.4 | COc1cc(O)c(C(=O)O)c(CC(=O)c2cccc(-c3cccc(C(F)(F)F)c3)c2)c1CC=C(C)C | 42.45 | 8.306 |  | 6.427 | 71.43
